Assay results reported in PubChem BioAssay AID1259407 (Chemical Carcinogenesis Research Information System (CCRIS), 2018).
The source made the active and inactive calls. How the calls were made is not given here.

Tested on: CCRIS mutagenicity, Ames/micronucleus/aberration tests
Test: CCRIS mutagenicity studies
Conditions: Test System: AMES SALMONELLA TYPHIMURIUM
[1] = Strain/Indicator: TA100, Metabolic Activation: NONE, Method: PREINCUBATION
[2] = Strain/Indicator: TA98, Metabolic Activation: NONE, Method: STANDARD PLATE
[3] = Strain/Indicator: TA98, Metabolic Activation: RAT, LIVER, S-9, AROCLOR 1254, Method: STANDARD PLATE
[4] = Strain/Indicator: TA100, Metabolic Activation: NONE, Method: STANDARD PLATE

With `C=CC(=O)NC(C)(C)CC(C)=O` the mutagenic call (Strain/Indicator: TA98, Metabolic Activation: HAMSTER, LIVER, S-9, AROCLOR 1254, Method: PREINCUBATION) was “inactive; negative”, the mutagenic call (Strain/Indicator: TA98, Metabolic Activation: NONE, Method: PREINCUBATION) was “inactive; negative” and the mutagenic call (Strain/Indicator: TA98, Metabolic Activation: RAT, LIVER, S-9, AROCLOR 1254, Method: PREINCUBATION) was “inactive; negative”. The mutagenic call (Strain/Indicator: TA100, Metabolic Activation: HAMSTER, LIVER, S-9, AROCLOR 1254, Method: PREINCUBATION) was “inactive; negative”, the mutagenic call [1] was “inactive; negative” and the mutagenic call (Strain/Indicator: TA100, Metabolic Activation: RAT, LIVER, S-9, AROCLOR 1254, Method: PREINCUBATION) was “inactive; negative”. The mutagenic call (Strain/Indicator: TA1535, Metabolic Activation: HAMSTER, LIVER, S-9, AROCLOR 1254, Method: PREINCUBATION) was “inactive; negative”, the mutagenic call (Strain/Indicator: TA1535, Metabolic Activation: NONE, Method: PREINCUBATION) was “inactive; negative” and the mutagenic call (Strain/Indicator: TA1535, Metabolic Activation: RAT, LIVER, S-9, AROCLOR 1254, Method: PREINCUBATION) was “inactive; negative”. The mutagenic call (Strain/Indicator: TA1537, Metabolic Activation: HAMSTER, LIVER, S-9, AROCLOR 1254, Method: PREINCUBATION) was “inactive; negative”, the mutagenic call (Strain/Indicator: TA1537, Metabolic Activation: NONE, Method: PREINCUBATION) was “inactive; negative” and the mutagenic call (Strain/Indicator: TA1537, Metabolic Activation: RAT, LIVER, S-9, AROCLOR 1254, Method: PREINCUBATION) was “inactive; negative”.

With `CCOc1ccc(N(O)C(=O)CC(C)O)cc1` (stereo unspecified) the mutagenic call (Strain/Indicator: TA100, Metabolic Activation: HAMSTER, LIVER, S-9, KANECHLOR 400 (WITHOUT NADPH GENERATING SYSTEM), Method: PREINCUBATION) was “active; positive” and the mutagenic call [1] was “inactive; negative”.

With `COc1ccc([N+](=O)[O-])ccc1=O` the mutagenic call (Strain/Indicator: TA98, Metabolic Activation: RAT, LIVER, S-9, KC500 OR PHENOBARBITAL, Method: LIQUID SUSPENSION) was “active; positive” and the mutagenic call (Strain/Indicator: TA100, Metabolic Activation: RAT, LIVER, S-9, KC500 OR PHENOBARBITAL, Method: LIQUID SUSPENSION) was “active; positive”.

`CCN(CC)c1ccc(N=Nc2ccc(N=Nc3c(S(=O)(=O)O)cc4ccc(N)cc4c3O)c(OC)c2)cc1` was tested, and the mutagenic call [2] was “inactive; negative”, the mutagenic call [3] was “active; positive” and the mutagenic call [4] was “inactive; negative”. For the same compound, the mutagenic call (Strain/Indicator: TA100, Metabolic Activation: RAT, LIVER, S-9, AROCLOR 1254, Method: STANDARD PLATE) was “inactive; negative”, the mutagenic call (Strain/Indicator: TA1538, Metabolic Activation: NONE, Method: STANDARD PLATE) was “inactive; negative” and the mutagenic call (Strain/Indicator: TA1538, Metabolic Activation: RAT, LIVER, S-9, AROCLOR 1254, Method: STANDARD PLATE) was “active; positive”.

In the case of `O=[N+]([O-])c1ccc2cc(O)c3cccc4ccc1c2c43`, the mutagenic call [2] is reported as “active; positive” and the mutagenic call [3] is reported as “active; positive”.

`COP(=S)(OC)SCC(=O)N(C)C=O` was tested, and the mutagenic call (Strain/Indicator: TA97A, Metabolic Activation: NONE, Method: STANDARD PLATE) was “inactive; negative”, the mutagenic call (Strain/Indicator: TA97A, Metabolic Activation: PLANT, HOMOGENATE, S-14, Method: STANDARD PLATE) was “inactive; negative” and the mutagenic call (Strain/Indicator: TA97A, Metabolic Activation: S-9, Method: STANDARD PLATE) was “inactive; negative”. The mutagenic call [2] was “inactive; negative”, the mutagenic call (Strain/Indicator: TA98, Metabolic Activation: PLANT, HOMOGENATE, S-14, Method: STANDARD PLATE) was “inactive; negative” and the mutagenic call (Strain/Indicator: TA98, Metabolic Activation: S-9, Method: STANDARD PLATE) was “inactive; negative”. The mutagenic call [4] was “inactive; negative”, the mutagenic call (Strain/Indicator: TA100, Metabolic Activation: PLANT, HOMOGENATE, S-14, Method: STANDARD PLATE) was “inactive; negative” and the mutagenic call (Strain/Indicator: TA100, Metabolic Activation: S-9, Method: STANDARD PLATE) was “inactive; negative”. For the same compound, the mutagenic call (Strain/Indicator: TA1535, Metabolic Activation: NONE, Method: STANDARD PLATE) was “inactive; negative”, the mutagenic call (Strain/Indicator: TA1535, Metabolic Activation: PLANT, HOMOGENATE, S-14, Method: STANDARD PLATE) was “inactive; negative” and the mutagenic call (Strain/Indicator: TA1535, Metabolic Activation: S-9, Method: STANDARD PLATE) was “inactive; negative”.
